Results reported in patent publication US20200046800A1, “BIOCIDAL AGENT” ("VERTA RESEARCH-PRODUCTION COMPANY" LTD, priority 2017, published 2020).

Experiments:
[1] = tested on: type 2 herpes simplex virus, strain G (ATCC VR-734); test: Lethal herpes infection in mice by vaginal infection, protective effect of gels; assay type: in vivo
Description: Eight groups of animals, containing 15 subjects each, were formed to conduct the experiment.
Groups 1-6: infected with type 2 herpes simplex virus and administered gels I-VI (experimental groups 1-6).
Group 8: infected with type 2 herpes simplex virus and not administered any pharmaceutical preparations (virus control).
Type 2 herpes simplex virus, strain G (ATCC VR-734, USA), was used in the experiment. The virus was cultivated in the T98G cell culture (human brain glioblastoma), then adapted to mice by two consecutive intracerebral passages. To prepare the final infective material, the animals were intracerebrally infected with brain tissue homogenate from the second passage; on the 4th day post infection, the animals were euthanized, their brain was extracted, homogenized, used to infect Vero cells, and incubated for 48 hours at 37° C. under 5% CO2 using the culture fluid, in which the infectious titer of the virus was previously determined, as the infective material.
The murine vaginal epithelium was injured with a scarifier for vaginal smears, after which the animals were infected with 30 μl of the virus at a 10^6 TCID50 dose. The examined gels were administered to mice in […] per the following regimen: 0.05 ml once a day 1, 2, 3, 4, and 5 days post infection.
The animals were followed for 18 days; their mortality was recorded daily. Cessation of mortality was defined by the absence of mice with signs of herpetic vaginitis (vaginal discharge) and complications thereof (posterior limb paresis). Based on the mortality data for each group, the mortality rate (Mr, ratio of the fallen animals at the time of control to the total number of infected animals in the group), protective index (IP, ratio of the difference in the percentage of mortality in the control and experimental groups to the percentage of mortality in the control group), and average life span of the animals (ALS) per each day of the experiment were calculated.
The protective effect of the peptide-containing gels was assessed by the reduction in the specific mortality and increase in the life span of the animals compared to the control group that wasn't treated.

[2] = tested on: human herpes simplex virus type 2 (HPV-2); settings: male rabbits, local application; cited from earlier work
[3] = guinea pigs, HPV-2; cited from earlier work
[4] = tested on: HPV-2; settings: guinea pigs; cited from earlier work
[5] = n = 15, vaginal HSV-2 10^6 TCID50, gel 0.05 ml once a day days 1-5, followed 18 days
[6] = n = 15, vaginal HSV-2, followed 18 days

| Compound | Number of dead animals [1, 5] | Number of survived animals [1, 5] | ALS (average life span) [1, 6] | Mortality [1, 6] | Increase in ALS ([1]; versus virus control, n = 15) | Length of the primary genital herpes outbreak [2] | Viral load on the body [2] | Discharge of the virus from the lesions [3] | Disease duration [4] |
| --- | --- | --- | --- | --- | --- | --- | --- | --- | --- |
| Nc1nc2c(ncn2COCCO)c(=O)[nH]1 [Acyclovir] | 4 | 11 | 13.9 24 hrs. | 26.7% | 2.6 |  |  |  |  |
| NH2-His-Gly-Val-Ser-Gly-His-Gly-Gln-His-Gly-Val-His-Gly-COOH (H-HGVSGHGQHGVHG-OH) [Peptide 1] |  |  |  |  |  | significantly shortened | reduced | statistically significant reduction | statistically significant reduction |
